This passage reports Ki results from US11447505B1, “Pyrrolo[2,3-b]pyridine compounds and their use in the treatment of cancer” (priority 2017, dated 2022).

One may read the Ki as the dissociation constant of the complex between target and ligand, obtained from inhibition or displacement.

Assay [1] addresses MRCKβ (Homo sapiens (Human), UniProt Q9Y5S2). Description: MRCKβ kinase assay (IMAP fluorescence polarization). Conditions: 1 μM ATP; read-out: MRCK-B Average Ki. The class given is biochemical. From the text: MRCKα, MRCKβ, ROCK1 and ROCK2 Kinase Assays
On the technique in general: Fluorescence polarisation rises when a labelled molecule tumbles more slowly, as on binding a larger partner.

In assay [2] the target is ROCK2 (Homo sapiens (Human), UniProt O75116). As to the kind of experiment: ROCK2 kinase assay (IMAP fluorescence polarization). Type of assay: biochemical. The note with it: 1 μM ATP; read-out: ROCK2 Average Ki.
ROCK2, sequence (O75116 whole entry): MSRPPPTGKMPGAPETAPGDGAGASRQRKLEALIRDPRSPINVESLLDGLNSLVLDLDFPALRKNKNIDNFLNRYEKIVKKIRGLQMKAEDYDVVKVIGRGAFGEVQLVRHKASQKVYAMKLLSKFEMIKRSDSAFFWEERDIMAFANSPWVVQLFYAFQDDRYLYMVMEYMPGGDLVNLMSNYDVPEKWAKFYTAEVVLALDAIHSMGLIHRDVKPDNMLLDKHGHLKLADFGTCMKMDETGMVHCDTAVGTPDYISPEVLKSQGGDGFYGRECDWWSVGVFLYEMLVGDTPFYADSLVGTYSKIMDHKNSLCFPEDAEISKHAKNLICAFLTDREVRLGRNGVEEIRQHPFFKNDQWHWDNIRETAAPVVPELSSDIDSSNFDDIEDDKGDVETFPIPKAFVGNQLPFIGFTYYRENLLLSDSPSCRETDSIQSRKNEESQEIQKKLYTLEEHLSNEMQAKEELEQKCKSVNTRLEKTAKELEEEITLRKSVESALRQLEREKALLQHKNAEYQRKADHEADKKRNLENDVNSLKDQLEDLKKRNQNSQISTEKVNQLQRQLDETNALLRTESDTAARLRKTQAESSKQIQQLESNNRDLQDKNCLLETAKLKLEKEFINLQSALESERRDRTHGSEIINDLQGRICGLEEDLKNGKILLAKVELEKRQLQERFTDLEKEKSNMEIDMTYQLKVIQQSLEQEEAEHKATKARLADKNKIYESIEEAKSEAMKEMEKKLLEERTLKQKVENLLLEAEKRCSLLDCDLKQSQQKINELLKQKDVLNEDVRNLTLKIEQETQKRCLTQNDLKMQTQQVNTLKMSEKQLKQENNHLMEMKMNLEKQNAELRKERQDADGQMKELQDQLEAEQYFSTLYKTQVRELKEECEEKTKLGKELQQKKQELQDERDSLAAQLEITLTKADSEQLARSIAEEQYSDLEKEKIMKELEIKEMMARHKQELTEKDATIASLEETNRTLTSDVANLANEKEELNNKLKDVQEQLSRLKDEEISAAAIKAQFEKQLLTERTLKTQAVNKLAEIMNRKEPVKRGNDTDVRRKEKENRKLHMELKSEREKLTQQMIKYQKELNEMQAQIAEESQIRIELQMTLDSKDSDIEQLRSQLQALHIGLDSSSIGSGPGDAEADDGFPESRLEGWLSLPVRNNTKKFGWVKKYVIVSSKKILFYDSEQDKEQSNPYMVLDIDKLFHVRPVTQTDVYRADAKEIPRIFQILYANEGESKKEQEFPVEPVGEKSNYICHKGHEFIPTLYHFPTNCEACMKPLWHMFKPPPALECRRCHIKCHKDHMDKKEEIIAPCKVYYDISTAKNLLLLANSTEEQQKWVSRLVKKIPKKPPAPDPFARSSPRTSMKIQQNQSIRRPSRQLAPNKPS
Experimental: MRCKα, MRCKβ, ROCK1 and ROCK2 assays were performed using an IMAP fluorescence polarization assay format (Molecular Devices Inc.). 8-12 nM of each kinase (Life Technologies) was incubated for 60 min at room temperature with 100 nM FAM-S6-ribosomal protein derived peptide (synthesized by Alta Biosciences, University of Birmingham UK) in the presence of 1 μM ATP and 0.5 mM MgCl2 in 20 mM Tris buffer (pH 7.4) containing 0.01% Tween-20 and 1 mM DTT (MRCKα and β); or 1 μM ATP, 10 mM MgCl2 in 20 mM Tris buffer (pH 7.5) containing 0.25 mM EGTA 0.01% Triton X-100 and 1 mM DTT (ROCK1 and ROCK2). Typically, dose response analyses were performed over concentration ranges from 0.005-100 μM. Reactions were stopped by adding 2 assay volumes of 0.25% (v/v) IMAP binding reagent in 1×IMAP binding buffer A (Molecular Devices). After 30 min incubation to allow binding reagent to bind phosphorylated peptide, fluorescence polarization was measured on a Tecan Saphire^2 plate reader at excitation (470 nm) and emission (530 nm) wavelengths.
The target in assay [3] is ROCK1 (Homo sapiens (Human), UniProt Q13464). Conditions: read-out: ROCK1 Average Ki; 1 μM ATP.
ROCK1, sequence (Q13464 2-1354 limits assumed): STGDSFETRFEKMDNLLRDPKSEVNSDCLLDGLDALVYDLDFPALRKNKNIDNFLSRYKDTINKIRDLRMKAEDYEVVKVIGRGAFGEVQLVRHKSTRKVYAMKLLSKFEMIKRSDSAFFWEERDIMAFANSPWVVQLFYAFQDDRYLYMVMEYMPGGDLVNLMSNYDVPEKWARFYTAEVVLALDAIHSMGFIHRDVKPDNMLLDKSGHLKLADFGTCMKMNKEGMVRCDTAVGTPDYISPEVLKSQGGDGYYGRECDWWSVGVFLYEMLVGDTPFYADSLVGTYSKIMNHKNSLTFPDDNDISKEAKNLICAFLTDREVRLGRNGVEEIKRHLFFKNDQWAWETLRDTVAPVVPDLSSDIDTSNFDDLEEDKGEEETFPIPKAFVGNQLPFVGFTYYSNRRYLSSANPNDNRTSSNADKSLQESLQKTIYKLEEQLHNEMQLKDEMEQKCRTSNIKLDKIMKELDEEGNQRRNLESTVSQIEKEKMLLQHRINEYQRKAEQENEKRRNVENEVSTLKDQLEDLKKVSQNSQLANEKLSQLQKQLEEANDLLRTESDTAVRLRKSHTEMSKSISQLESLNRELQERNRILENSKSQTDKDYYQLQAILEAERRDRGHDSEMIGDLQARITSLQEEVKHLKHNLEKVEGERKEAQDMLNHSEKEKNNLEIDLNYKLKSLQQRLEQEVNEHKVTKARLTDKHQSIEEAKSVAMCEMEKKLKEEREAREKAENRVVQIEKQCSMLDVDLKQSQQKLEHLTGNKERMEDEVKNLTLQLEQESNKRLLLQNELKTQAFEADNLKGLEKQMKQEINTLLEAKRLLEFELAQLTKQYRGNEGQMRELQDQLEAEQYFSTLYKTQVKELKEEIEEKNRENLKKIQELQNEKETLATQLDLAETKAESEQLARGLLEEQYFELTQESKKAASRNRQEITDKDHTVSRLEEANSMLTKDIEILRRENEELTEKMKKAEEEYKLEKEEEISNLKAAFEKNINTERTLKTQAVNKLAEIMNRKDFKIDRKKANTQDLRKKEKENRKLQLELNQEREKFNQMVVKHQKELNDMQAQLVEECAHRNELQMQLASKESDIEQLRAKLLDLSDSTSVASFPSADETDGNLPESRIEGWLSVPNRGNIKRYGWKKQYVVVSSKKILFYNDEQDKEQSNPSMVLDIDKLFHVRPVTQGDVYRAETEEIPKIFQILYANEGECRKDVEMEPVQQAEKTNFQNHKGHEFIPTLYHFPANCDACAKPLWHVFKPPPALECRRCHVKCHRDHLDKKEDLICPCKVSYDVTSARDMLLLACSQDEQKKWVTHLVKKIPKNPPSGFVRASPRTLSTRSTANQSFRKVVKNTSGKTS
Experimental: MRCKα, MRCKβ, ROCK1 and ROCK2 assays were performed using an IMAP fluorescence polarization assay format (Molecular Devices Inc.). […] Typically, dose response analyses were performed over concentration ranges from 0.005-100 μM. […] After 30 min incubation to allow binding reagent to bind phosphorylated peptide, fluorescence polarization was measured on a Tecan Saphire^2 plate reader at excitation (470 nm) and emission (530 nm) wavelengths.

As for `CNC1CCN(c2ccnc3[nH]cc(-c4cncnc4)c23)CC1` [Example E63, N-methyl-1-(3-pyrimidin-5-yl-1H-pyrrolo[2,3-b]pyridin-4-yl)piperidin-4-amine], the Ki in assay [1] worked out at 1.98 nM; in assay [2], 91.2 nM; in assay [3], 138 nM.

For `NCCC1CCN(c2ccnc3[nH]cc(-c4cncnc4)c23)CC1` [Example E238], the Ki in assay [1] stood at 1.02 nM; in assay [2] it was 18.4 nM; in assay [3], 14.2 nM.

Turning to `N#Cc1c[nH]c2nccc(N3CCNCC3)c12` [Example E34, 4-piperazin-1-yl-1H-pyrrolo[2,3-b]pyridine-3-carbonitrile], the Ki in assay [1] came to 52.8 nM; in assay [2], 23.8 nM; in assay [3] it was 43.6 nM.

Regarding `CN[C@@H]1CCCN(c2ccnc3[nH]cc(-c4cncnc4)c23)C1` [Example E77, (3R)-N-methyl-1-(3-pyrimidin-5-yl-1H-pyrrolo[2,3-b]pyridin-4-yl)piperidin-3-amine], the values for the Ki in assay [1], in assay [2] and in assay [3] were 10.5 nM, 248 nM and 379 nM, respectively.

Consider `CN(C1CC1)[C@H]1CCCN(c2ccnc3[nH]cc(-c4cncnc4)c23)C1` (stereo in doubt) [Example E80], for which the Ki in assay [1] was found to be 8.3 nM; in assay [2], 228 nM; in assay [3] it was 499 nM.

As to `c1cnc(-c2c[nH]c3nccc(N4CCCCC4)c23)cn1` [Example E16, 4-(1-piperidyl)-3-pyrazin-2-yl-1H-pyrrolo[2,3-b]pyridine], the Ki was 61.8 nM in assay [1], 159 nM in assay [2] and 504 nM in assay [3].

`Cc1[nH]ncc1-c1c[nH]c2nccc(N3CCCCC3)c12` [Example E104, 3-(5-methyl-1H-pyrazol-4-yl)-4-(1-piperidyl)-1H-pyrrolo[2,3-b]pyridine]: the values for the Ki in assay [1], in assay [2] and in assay [3] were 222 nM, 198 nM and 303 nM, respectively.

On to `CN1CCN(c2ccnc3[nH]cc(C#N)c23)CC1` [Example E32, 4-(4-methylpiperazin-1-yl)-1H-pyrrolo[2,3-b]pyridine-3-carbonitrile], for which the Ki in assay [1] was 147 nM; in assay [2], 164 nM; in assay [3], 237 nM.

Consider `c1ncc(-c2c[nH]c3nccc(N4CCCC(N5CCNCC5)C4)c23)cn1` (stereo not drawn) [Example E91, 4-(3-piperazin-1-yl-1-piperidyl)-3-pyrimidin-5-yl-1H-pyrrolo[2,3-b]pyridine], for which the Ki in assay [1] was found to be 49.5 nM; in assay [2], 163 nM; in assay [3] it was 231 nM.

Consider `N#Cc1c[nH]c2nccc(N3CCC3)c12` [Example E240], for which the Ki was determined as 8.31 nM in assay [1], 21.6 nM in assay [2] and 38.7 nM in assay [3].

As for `N[C@H]1CCN(c2ccnc3[nH]cc(-c4cncnc4)c23)C1` [Example E58, (3S)-1-(3-pyrimidin-5-yl-1H-pyrrolo[2,3-b]pyridin-4-yl)pyrrolidin-3-amine], the inhibitory constant (Ki) in assay [1] was found to be 3.48 nM; in assay [2], 85.8 nM; in assay [3] it was 158 nM.

In the case of `c1ncc(-c2c[nH]c3nccc(NCC4CCNCC4)c23)cn1` [Example E102, N-(4-piperidylmethyl)-3-pyrimidin-5-yl-1H-pyrrolo[2,3-b]pyridin-4-amine], the Ki in assay [1] is 13.9 nM; in assay [2], 51.2 nM; in assay [3] it was 38.2 nM.

As for `Cc1cnc2[nH]cc(-c3cncnc3)c2c1N1CCCCC1` [Example E1, 5-methyl-4-(1-piperidyl)-3-pyrimidin-5-yl-1H-pyrrolo[2,3-b]pyridine], the Ki came out at 64.6 nM in assay [1], 6500 nM in assay [2] and 15000 nM in assay [3].

As to `Cc1[nH]ncc1-c1c[nH]c2nccc(N3CCC[C@H](N)C3)c12` [Example E61, (3S)-1-[3-(5-methyl-1H-pyrazol-4-yl)-1H-pyrrolo[2,3-b]pyridin-4-yl]piperidin-3-amine], the Ki in assay [1] stood at 11.5 nM; in assay [2], 68.3 nM; in assay [3], 93.2 nM.

Turning to `c1ncc(-c2c[nH]c3nccc(NC4CCCNC4)c23)cn1` (stereo not drawn) [Example E242], the Ki stood at 19.3 nM in assay [1], 165 nM in assay [2] and 217 nM in assay [3].

For the compound `NC1CCCN(c2ccnc3[nH]cc(-c4cncnc4)c23)C1` (stereo not drawn) [Example E59, 1-(3-pyrimidin-5-yl-1H-pyrrolo[2,3-b]pyridin-4-yl)piperidin-3-amine], the figures for the Ki in assay [1], in assay [2] and in assay [3] were 6.9 nM, 154 nM and 318 nM, respectively.

With `CNc1cc(-c2c[nH]c3nccc(N4CCCCC4)c23)ccn1` [Example E5, N-methyl-4-[4-(1-piperidyl)-1H-pyrrolo[2,3-b]pyridin-3-yl]pyridin-2-amine], the Ki is 3.02 nM in assay [1], 22.5 nM in assay [2] and 40.8 nM in assay [3].

With `CCn1cc(-c2c[nH]c3nccc(N4CCCCC4)c23)cn1` [Example E21, 3-(1-ethylpyrazol-4-yl)-4-(1-piperidyl)-1H-pyrrolo[2,3-b]pyridine], the figures for the Ki in assay [1], in assay [2] and in assay [3] were 188 nM, 67.9 nM and 74.9 nM, respectively.

In the case of “4-morpholino-1H-pyrrolo[2,3-b]pyridine-3-carbonitrile [Example E33]”, the Ki worked out at 87.1 nM in assay [1], 127 nM in assay [2] and 196 nM in assay [3].

As to `CN[C@H]1CCCN(c2ccnc3[nH]cc(-c4cncnc4)c23)[C@H]1C` (relative stereo) [Example E179, cis-N,2-dimethyl-1-(3-pyrimidin-5-yl-1H-pyrrolo[2,3-b]pyridin-4-yl)piperidin-3-amine], the Ki turned out to be 128 nM in assay [1], 1090 nM in assay [2] and 1290 nM in assay [3].

Turning to `N[C@@H]1CCCN(c2ccnc3[nH]cc(-c4cncnc4)c23)C1` [Example E64, (3R)-1-(3-pyrimidin-5-yl-1H-pyrrolo[2,3-b]pyridin-4-yl)piperidin-3-amine], the inhibition constant Ki in assay [1] was 14.8 nM; in assay [2], 390 nM; in assay [3] it was 166 nM.

As for `c1ncc(-c2c[nH]c3nccc(OC4CCNCC4)c23)cn1` [Example E223, 4-(4-piperidyloxy)-3-pyrimidin-5-yl-1H-pyrrolo[2,3-b]pyridine], the Ki was found to be 5.84 nM in assay [1], 108 nM in assay [2] and 153 nM in assay [3].

In the case of `Clc1cncc(-c2c[nH]c3nccc(N4CCCCC4)c23)c1` [Example E12, 3-(5-chloro-3-pyridyl)-4-(1-piperidyl)-1H-pyrrolo[2,3-b]pyridine], the Ki in assay [1] was 366 nM; in assay [2] it was 574 nM; in assay [3] it was 2150 nM.

For `Cn1nccc1-c1c[nH]c2nccc(N3CCCCC3)c12` [Example E18, 3-(2-methylpyrazol-3-yl)-4-(1-piperidyl)-1H-pyrrolo[2,3-b]pyridine], the Ki stood at 818 nM in assay [1], 2480 nM in assay [2] and 10000 nM in assay [3].

With `CN1CCCN(c2ccnc3[nH]cc(-c4cncnc4)c23)CC1` [Example E103, 4(4-methyl-1,4-diazepan-l-yl)-3-pyrimidin-5-yl-1H-pyrrolo[2,3-b]pyridine], the Ki is 18.7 nM in assay [1], 161 nM in assay [2] and 252 nM in assay [3].

As to `c1ncc(-c2c[nH]c3nccc(N[C@@H]4CCCNC4)c23)cn1` [Example E88, N-[(3R)-3-piperidyl]-3-pyrimidin-5-yl-1H-pyrrolo[2,3-b]pyridin-4-amine], the Ki in assay [1] turned out to be 7.21 nM; in assay [2], 70.4 nM; in assay [3] it was 85.2 nM.
